Key:
[1] = molecular target: PSMA (Homo sapiens, UniProt Q04609); assay: PSMA inhibition (IC50, mode of inhibition); assay type: biochemical
[2] = tested on: tumor; assay: Uptake over time in the fraction associated with the tumor; conditions: in vivo
Source text: Following administration of the chelated PSMA inhibitors herein, the imaging time may be altered to alter and/or optimize imaging characteristics.

[3] = Acid and base stability noted in preliminary labeling and deprotection studies; assay type: physicochemical; conditions: serine-based scaffold; beta-elimination under base, P—N bond labile to acid
Source text: The instability of CTT54 and its protected precursors under basic conditions is due to beta-elimination on serine to yield a dehydroalanine derivative. The acid instability was centered on the P—N bond of CTT54, which precluded the use of acid modifiers in HPLC mobile phases. […] The homoserine analog was known initially as hCTT54 and later, more formally, as CTT1000. The 2(3-hydroxypropyl)glycine is known as TG97 and CTT2000. The base stability was expected as the beta-elimination problem associated with phosphorylated serine residue would be blocked. However, the acid stability was unexpected.

Sequence of PSMA (Q04609 whole entry): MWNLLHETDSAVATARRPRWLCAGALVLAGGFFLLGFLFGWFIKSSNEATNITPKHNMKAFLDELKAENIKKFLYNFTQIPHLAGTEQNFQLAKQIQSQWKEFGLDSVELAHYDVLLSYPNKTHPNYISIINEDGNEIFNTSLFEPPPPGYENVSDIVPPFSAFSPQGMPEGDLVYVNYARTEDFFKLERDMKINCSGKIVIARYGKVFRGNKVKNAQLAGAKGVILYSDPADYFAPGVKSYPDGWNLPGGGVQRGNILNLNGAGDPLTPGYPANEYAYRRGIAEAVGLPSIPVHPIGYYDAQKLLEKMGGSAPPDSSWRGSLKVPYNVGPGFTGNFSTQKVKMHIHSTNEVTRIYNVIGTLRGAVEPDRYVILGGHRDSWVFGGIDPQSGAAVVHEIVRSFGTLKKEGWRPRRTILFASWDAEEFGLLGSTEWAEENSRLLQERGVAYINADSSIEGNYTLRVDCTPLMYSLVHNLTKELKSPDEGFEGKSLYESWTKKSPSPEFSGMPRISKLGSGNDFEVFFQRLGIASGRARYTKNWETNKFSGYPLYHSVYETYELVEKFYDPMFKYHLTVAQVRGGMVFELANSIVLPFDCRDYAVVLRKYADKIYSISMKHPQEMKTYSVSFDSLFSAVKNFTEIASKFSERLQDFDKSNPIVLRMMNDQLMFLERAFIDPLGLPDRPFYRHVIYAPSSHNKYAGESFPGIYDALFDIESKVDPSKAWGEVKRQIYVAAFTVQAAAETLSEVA

IC50 [1] [nM]	uptake in the fraction associated with the tumor over time [2]	Structure (SMILES)	acid and base stability [3]
15	–	N[C@@H](CCC(=O)N[C@@H](CCOP(=O)(O)N[C@@H](CCC(=O)O)C(=O)O)C(=O)O)C(=O)O [CTT1000]	–
–	continues to increase over time	N[C@@H](CCC(=O)N[C@@H](COP(=O)(O)N[C@@H](CCC(=O)O)C(=O)O)C(=O)O)C(=O)O [CTT-54, L-[…]- glutamyl-O-[{[(1S)-1,3-dicarboxy-propyl]amino} (hydroxy)phosphoryl]-L-serine]	acid and base stability issues were noted

Source: US9974869B2, “Chelated PSMA inhibitors” (Cancer Targeted Technology LLC, priority 2011, dated 2018)
